# Paper PMC4788259 (PLoS Neglected Tropical Diseases, 2016)
# Like-named read-outs stand apart in the source and are kept apart here.
# What was measured:
# [1] = tested on: E. multilocularis metacestode vesicles; experiment: microbe, parasite or virus in culture; conditions: Echinococcus multilocularis, 288 h, read-out: mean viability
# [2] = parameters: method as in earlier work; conditions: HMS, Mouse; ref MMV; cited from earlier work
# [3] = parameters: method as in earlier work; conditions: MMS, Human; ref MMV; cited from earlier work
# [4] = parameters: method as in earlier work; conditions: MMS, Mouse; ref MMV; cited from earlier work
# adult worms = tested on: adult worms; parameters: method as in PMID 24416463; conditions: in vitro; read-out: IC50 against adult worms; cited from earlier work
# [5] = parameters: method as in earlier work; conditions: HMS, Human; ref MMV; cited from earlier work
# [6] = tested on: E. multilocularis metacestodes; experiment: Intraperitoneal treatment of secondary infected mice; assay type: in vivo, BALB/c mice; conditions: 4 weeks, MMV665807 100 mg/kg i.p. three times per week, ABZ 200 mg/kg p.o. 5 days per week
# Description: (§1) Animals were kept at a temperature-controlled 12/12 hours light cycle with food and water ad libitum and according to the Swiss Animal protection law. For the in vivo treatment of MMV665807, BALB/c mice (from Charles River, Sulzfeld, Germany), at the age of 8 weeks with an average body weight of 20 g, were i.p. infected with 200 μL metacestodes vesicle suspension. This material was prepared from in vitro-cultured metacestodes (strain H95), which were disintegrated by pressing the parasites through a 1 mL pipette tip. Parasite tissue was centrifuged at 500 x g for 5 min at room temperature before being mixed 1:1 in PBS.
# I.p. drug treatments were initiated 2 weeks post-infection. 32 infected mice were randomly separated into 4 groups with 2 times 4 animals per cage. All animals were exposed to 4 weeks of treatment, with five consecutive days of drug application followed by a 2 day recovery period without treatment. Treatment groups were defined as follows: group 1 (control) received 50 μL of corn oil by gavage on 5 days per week, and an i.p. injection of DMSO in corn oil (4 μL DMSO and 46 μL corn oil) on three days per week; group 2 also received corn oil by gavage 5 days per week, and an i.p. injection of MMV665807 (100 mg/kg in 4 μL DMSO plus 46 μL corn oil) three times per week; group 3 was treated with the standard albendazole treatment (albendazole in corn oil, 200 mg/kg/ day for 5 days each week) and also received an i.p. injection of 4 μl DMSO suspended in 46 μl corn oil three times per week; group 4 received a combined treatment consisting of albendazole in corn oil by gavage (200 mg/kg/day 5 days per week) and an i.p. injection of MMV665807 (100 mg/kg three times per week). After 4 weeks of treatment, mice were euthanized and the parasite mass resected and measured as described above. Statistical analyses were performed as described above.
# [7] = parameters: method as in earlier work; conditions: PLS, ref MMV; cited from earlier work
# [8] = parameters: method as in earlier work; conditions: PLS, ref MMV; cited from earlier work; remark: listed apart in the source
# [9] = cited from earlier work
# [10] = tested on: human foreskin fibroblasts (HFF); experiment: alamarBlue viability assay on HFF; assay type: cell-based; conditions: Fibroblast, 120 h, 5 days
# Description: For testing growth inhibitory effects on confluent host cells, cells were seeded in 96-well plates (10,000 cells per well for HFF and 50,000 cells per well for RH cells), in DMEM containing FBS (10%) and antibiotics (100 U penicillin, 100 μg streptomycin and 0.25 μg amphotericin B per mL medium) and were cultured overnight at 37°C, 5% CO2. Thereafter the drugs (10 μM) were added and diluted in a serial 1:2 dilutions down to 20 nM. The concentration range was further adjusted in subsequent setups. For testing growth inhibitory effects on proliferating cells, cells were seeded at 1,000 (HFF) and 5,000 (RH) cells per well, and were allowed to attach for 5 hours at 37°C before addition of the drugs. After 5 days of culture, cell viability was assessed by alamarBlue assay.
# murine macrophages = tested on: murine macrophages; parameters: method as in PMID 23211970; conditions: cited from earlier work
# [11] = tested on: E. multilocularis metacestode vesicles; conditions: 12 days, alamarBlue vesicle viability assay
# [12] = tested on: E. multilocularis metacestodes; experiment: Peroral treatment of secondary infected mice; assay type: in vivo, BALB/c mice; conditions: p.o. gavage 5 days per week, 4 weeks, MMV665807 100 mg/kg, ABZ 200 mg/kg
# Description: as §1
# Peroral (p.o.) drug treatments by gavage were initiated 6 weeks post-infection and performed as follows: group 1 received no treatment at all; group 2 received 100 μL corn oil containing 7.8 μL DMSO; group 3 mice were treated with 100 μL corn oil containing albendazole (ABZ) in 7.8 μL DMSO, in order to obtain a dosage of 200 mg/kg body weight (positive control); group 4 was treated with 100 μL corn oil containing MMV665807 in 7.8 μL DMSO, resulting in 100 mg/kg body weight. All mice were treated for a total time period of 4 weeks, with consecutive treatment during 5 days per week, and interruption of treatment for 2 days each week. At the end of the treatment, all mice were sedated by isoflurane and subsequently euthanized by CO2. All parasite tissue was resected, placed into a petri dish, and the parasite mass was weighed. Statistical analysis of the in vivo experiments was performed in R version 3.0.1. The data distribution was checked by Shapiro-Wilk test and eventual differences between treatment groups identified by the non-parametric Kruskal-Wallis test. P values were calculated by the non-parametric Wilcoxon […] test with Bonferroni-adjustment. Boxplot visualizations of the data were prepared in Microsoft Excel 2010.
# [13] = PO, administered dose 119 μmol/kg, ref MMV
smiles,measurement,setting,value
O=C(Nc1cccc(C(F)(F)F)c1)c1cc(Cl)ccc1O [MMV665807],viability at 0.1 µM,[1],59.7%
same,viability at 0.2 µM,[1],65.5%
same,viability at 0.4 µM,[1],69%
same,viability at 0.8 µM,[1],97.9%
same,viability at 1.6 µM,[1],5.29%
same,viability at 3.1 µM,[1],6.06%
same,viability at 6.3 µM,[1],4.71%
same,viability at 12.5 µM,[1],2.84%
same,viability at 25 µM,[1],2.92%
same,viability at 50 µM,[1],2.9%
same,viability at 100 µM,[1],3.06%
same,CLint,[2],302.9 mL/min/kg
same,t½,[2],27.2 min
same,CL,[3],66.8 µL/min/mg
same,CLh,[3],15.9 mL/min/kg
same,CLint,[3],66.1 mL/min/kg
same,T1/2,[3],41.5 min
same,CL,[4],190.4 µL/min/mg
same,CLh,[4],80.4 mL/min/kg
same,CLint,[4],754.0 mL/min/kg
same,T1/2,[4],14.6 min
same,IC50,adult worms,0.6 to 1.3 µM
same,CLint,[5],107.6 mL/min/kg
same,t½,[5],23.3 min
same,parasite weight compared to placebo group,[6]; start 2 weeks post-infection,did not result in a reduction
same,adverse effects during treatment,[6],No adverse effects
same,% Remaining after Incubation (60 min) Human Plasma,[7],83.2%
same,% Remaining after Incubation (60 min) CD-1 Mouse Plasma,[8],102.5%
same,AUC0-last,[9]; [13],0.264 µM·h
same,Cmax,[9]; [13],62.3 nM
same,MRT0-last,[9]; [13],314 min
same,Tlast,[9]; [13],9.00 h
same,Tmax,[9]; [13],380 min
same,plasma level,"[9]; single dose p.o. application of 50 mg/kg, ref MMV (S3 Table)",60 nM
same,IC50,"[10]; confluent cells, read-out: Confluent HFF (IC50)",29.2 ± 0.06 µM
same,IC50,"[10]; proliferating cells, read-out: Preconfluent HFF (IC50)",4.8 ± 0.59 µM
same,IC50,murine macrophages,5.9 µM
same,lowest concentration that almost completely abolishes viability of the metacestode tissue,[11],1.6 µM
same,parasite weight compared to control,[12]; start 6 weeks post-infection,no effect
same,adverse effects during treatment,[12],No adverse effects
